In US20130310347A1, “MULTI-MODALITY MOLECULAR IMAGING HIGH-THROUGHPUT ASSAY FOR IDENTIFYING HEAT SHOCK PROTEIN 90 (HSP90) INHIBITORS” (The Board of Trustees of the Leland Stanford Junior …, priority 2012, published 2013):

Key:
[1] = system: 293T Hsp90(α/β)/p23-FG xenografts; assay: 18F-FDG small animal PET/CT of tumor glucose metabolism; format: in vivo, mice
Procedure: FIG. 8B is a graph illustrating quantitation of the effect of CP9 on inhibition of glucose metabolism. The PET image of each mouse and each site at each time point was reconstructed and quantified using the OSEM 2D algorithm. The increase in max % ID/g at 43 h relative to 0 hr is shown as average±S.E.M. CP9 led to significant decrease in glucose metabolism, compared to carrier control treated mice (p<0.005).
^18F-FDG PET/CT has been used for repetitive and non-invasive monitoring of chemotherapy responses both in small animals and in humans (Aliaga et al., (2007) Mol. Imaging. Biol. 9: 144-150; de Geus-Oei et al., (2009) J. Nucl. Med. 50(Suppl 1): 43S-54S). Since CP9 inhibits glucose metabolism in cancer cells (FIG. 6B), its effect in the same cohort of living mice used for BLI (FIGS. 7A-7C) was monitored by small animal PET/CT imaging using ^18F-FDG. […] Baseline ^18F-FDG uptake in tumor-bearing mice was determined pre-treatment with four doses of carrier control (DMSO) or CP9 (80 mg/kg in DMSO) (FIG. 8A). The % max ID/g of ^18F-FDG uptake was determined by the OSEM2D method upon normalization of injected dose (Wiant et al., (2010) Med. Phys. 37: 1169-1182). The % increase in ^18F-FDG uptake at 43 h relative to 0 h was determined for each tumor site. […]

[2] = system: 1975 cells; assay: Alamar Blue cell proliferation; format: cell-based; conditions: 1975, 24 h
Procedure: (§1) FIG. 6A is a series of graphs illustrating the effect of CP9 on cell proliferation determined by an Alamar Blue assay. The indicated cancer cell lines were treated with different concentrations of CP9 for 24 h prior to incubation with Alamar blue for 4 h. The Hsp90 inhibitors PU-H71 and 17AAG were used as positive controls. Emissions at 570 nm in CP9-treated cells were normalized to that of carrier control-treated cells. Results are expressed as normalized cell proliferation±S.E.M.
(§2) CP9 had no effect on proliferation of normal MEFs. Since CP9 led to decrease in phosphorylated Akt (FIGS. 5A and 10A-10C), it was expected to inhibit glucose metabolism through relief of inhibition of glycogen synthase kinase […] (Nair & Olanow (2008) J. Biol. Chem. M707238200; Dandekar et al., (2007) J. Nucl. Med. 48: 602-607).

[3] = system: U87-MG cells; assay: Alamar Blue cell proliferation; format: cell-based, human; conditions: 24 h
Procedure: as §1, §2

[4] = system: Hsp90 client proteins (Raf-1, total and phosphorylated Akt); assay: Western blotting of Hsp90 client proteins in 293T cells; format: cell-based, human; conditions: 5 μM, 24 h
Procedure: FIG. 5A is a digital image of a western blot analysis illustrating the effect of lead compounds on the expression of Hsp90 client proteins. 293T cells stably expressing Hsp90(α/β)/p23 split reporters were treated with carrier control or compounds CP1, CP9, or CP18 (5 μM each) for 24 h. The known Hsp90 inhibitor PU-H71 (2 μM) was used as a positive control. The expression of Hsp90 client proteins (Raf-1, total and phosphorylated Akt) was determined by western blotting. α-Tubulin was used as a loading control.
Cells treated with PU-H71 (2 μM) served as a positive control.
Cells treated with 2 μM of PU-H71 served as a positive control. Western blotting of Hsp70, phosphorylated and total Akt and co-immunoprecipitation of Hsp90(α/β)/p23 interactions was performed as described Inglese et al., (2006) Proc. Nat. Acad. Sci. U.S.A. 103: 11473-11478, incorporated herein by reference in its entirety. The expression of Raf-1 was determined using rabbit polyclonal antibodies against Raf-1 (0.5 μg/ml, Abcam).

[5] = system: DOX-resistant V79/ADR lung cancer cells; assay: Sensitivity to DOX, Alamar Blue assay; format: cell-based; conditions: DOX 0.31-10 μM with inhibitor (CP9 8 μM), 24 h
Procedure: (§3) FIGS. 13A-13C illustrate the inhibition of cell proliferation of DOX-resistant V79/ADR lung cancer cells by CP9 and the Hsp90 inhibitor PU-H71 in cell culture. V79 lung cancer cells and […] cells that are resistant to DOX were treated with DOX (0.31-10 μM) in the presence or absence of CP9 (8 μM) for 24 h before determination of cell number by an Alamar Blue assay.
(§4) Both Hsp90 isoforms (α and β) are expressed in cancer cells, but Hsp90β is constitutively expressed, whereas the expression of Hsp90α is highly inducible during stress and drug treatment. Using the genetically encoded split Renilla reporter system according to the disclosure, it was possible to decipher the individual contributions of each isoform in determining the sensitivity of Hsp90 inhibitors. It was reported that the transcription of MDR1 is regulated by HSF-1, which in turn is regulated by Hsp90α (Trepel et al., (2010) Nat. Rev. Cancer 10: 537-549). To determine the biological significance of CP9 selectivity in inhibiting Hsp90α/p23 interactions, V79 lung cancer cells and V79/ADR cells that overexpress multidrug-resistant protein and are insensitive to growth inhibition by doxorubicin (DOX) were used. V79 and V79/ADR cells were treated with DOX alone or in the presence of CP9. On the other hand, the addition of CP9 sensitized V79/ADR cells to DOX, as shown by the decrease in cell proliferation relative to treatment with DOX alone, as shown in FIG. 13B. […] The results also are consistent with the observation that derivatives of Hsp90 inhibitor peptides sensitize cancer cells with overexpression of MDR to epirubicin (a class of anthracyclines that includes DOX) (Molnar et al., (2007) In Vivo 21: 429-433).

[6] = system: V79 lung cancer cells; assay: Sensitivity to DOX, Alamar Blue assay; format: cell-based; conditions: DOX 0.31-10 μM with CP9 8 μM, 24 h
Procedure: as §3, §4

For Cc1cc(NC(=O)CSc2nc(-c3cccs3)cc(C(F)(F)F)n2)no1 [CP9, N-(5-methylisoxazol-3-yl)-2-(4-(thiophen-2-yl)-6-(trifluoromethyl)pyrimidin-2-ylthio)acetamide], the “decrease in 18F-FDG uptake in tumors relative to carrier control treated mice” value ([1]; CP9 treatment, 43 h) was 40%, the “decrease in 18F-FDG uptake in tumors at 43 h relative to 0 h” value ([1]; four doses CP9 80 mg/kg in DMSO, n=10 tumors, p<0.005 vs carrier control) was 16±9% and the “inhibition of cell proliferation vs PU-H71 and 17-AAG” value [2] was “more effective than PU-H71 and 17-AAG”. The “inhibition of cell proliferation vs PU-H71 and 17-AAG” value [3] was “more effective than PU-H71 and 17-AAG”, the “levels of Hsp90 client proteins (pAkt/total Akt, Raf-1)” value [4] was “more effective than CP18” and the “sensitivity of drug-resistant V79/ADR cells to DOX” value [5] was “partially restored the sensitivity”. The “sensitivity of drug-sensitive V79 cells to DOX” value [6] was “did not affect the sensitivity”.
